Data taken from a melting point compilation (Tetko et al.; mined from patent text by program, amines drawn as free bases though some values may be those of a salt).

Row | Structure (SMILES) | melting point [°C]
1 | CNC(=C[N+](=O)[O-])NCCSCc1ccccn1 | 112 to 113
2 | CCOC(=O)CNC(=O)c1nc2ccc(Cl)nn2c1C | 192 to 195
3 | c1ccc(-c2n[nH]cc2-c2ccnc(-c3ccc(OCCn4ccnc4)cc3)c2)nc1 | 108
4 | CCCCCc1cc(C(=O)O)c(C)o1 | 47 to 48
5 | CCCOc1ccc(C(=O)CBr)cc1 | 36 to 38
6 | Cc1ccc(S(=O)(=O)Cc2c(C(=O)O)nn(-c3ccccc3)c2O)cc1 | 228
7 | CCC(=O)Nc1n[nH]c(C(C)(C)C)c1Cl | 136 to 137
8 | O=c1ncnc2cc3[nH][nH]cc3cc12 | 330
9 | O=S(=O)(c1ccccc1)N1CCC(C(c2ccc(F)cc2)c2ccc(F)cc2)CC1 | 180 to 184
10 | Nc1scc2c1C(=O)c1c(Cl)cccc1-2 | 183 to 185
11 | N#Cc1ccc(O)c(C2(C(=O)O)CCCC2)c1 | 153 to 154
12 | COC(=O)c1ccc2cc(C(O)c3cccnc3)ccc2c1 (stereo not drawn) | 130 to 135
13 | OC1CSC(Oc2cccc(-c3ccncc3Cl)c2)C(O)C1O (stereo not drawn) | 158 to 161
14 | Cc1nc2c(n1-c1ccccc1)C(=O)c1ccccc1C2=O | 242
15 | O=C1NCC=NN1c1cc(Cl)c(Sc2ccc(Cl)cc2)c(Cl)c1 | 224 to 225
16 | CCOC(=O)c1cn(Cc2ccccc2)nc1OCc1ccc(OCc2nc(-c3ccco3)oc2C)cc1 | 101 to 102
17 | COc1cc(Nc2nccc(-c3cccc(O)c3)n2)cc(OC)c1OC | 191 to 192
18 | COc1nc(NC(=O)NS(=O)(=O)c2ccccc2CCC(F)(F)F)nc(OC)n1 | 177 to 178
19 | CCOC(=O)CCc1nc2cccnc2n(-c2cccc(NC(=O)Nc3ccccc3OC)c2)c1=O | 175
20 | CCCOc1cc(O)nc(N(C)C)n1 | 194 to 195
21 | Cc1cccc(-c2cc(Cl)c3ccccc3n2)c1 | 75 to 77
22 | CC(C)(C)OC(=O)N(CCN)CCN(CCN)C(=O)OC(C)(C)C | 81 to 82
23 | COC(=O)C(NS(=O)(=O)c1ccc(-c2ccc(NC(=O)c3cc4c(OC(C)C)cccc4o3)cc2)cc1)C(C)C (stereo not drawn) | 226 to 229
24 | CC1=C(C(C)O)C(C)(C)CCC1=NO (stereo not drawn) | 131 to 135
25 | CNC(=O)OCc1c(COC(=O)NC)c2n(c1C)-c1ccccc1C2 | 86 to 88

Row | Structure (SMILES) | melting point [°C]
26 | Nc1cccc(Oc2ccc(C(c3ccc(Oc4cccc(N)c4)cc3)(C(F)(F)F)C(F)(F)F)cc2)c1 | 137 to 139
27 | COc1cc(SCc2sc(-c3ccc(C(F)(F)F)cc3)nc2C)c(C)cc1OCC(=O)O | 165 to 167
28 | COc1cc(O)c2c(c1OC)C(=O)C(O)=C(C)C2=O | 218 to 220
29 | CCCc1c(OCc2ccc(C(=O)O)cc2F)ccc(C(C)=O)c1O | 203 to 206
30 | O=C(O)c1ccc(-n2ccc3ccccc32)cc1 | 222 to 224
31 | Cc1ccc(C(CC(=O)O)C(=O)O)s1 (stereo not drawn) | 186 to 188
32 | N#Cc1cnc2c(sc3ccccc32)c1Nc1cccc(Br)c1 | 240 to 242
33 | O=C(c1ccc(Nc2ccnc3cc(Cl)ccc23)cc1)N1CCNCC1 | 248 to 250
34 | CCCc1nc2c(N)nc(C)c(C)c2n1CCCCN(O)C(C)=O | 164 to 166
35 | CCCCNC(=S)Nc1ccccc1N1CCOCC1 | 105
36 | c1ccc(-c2nn3c(c2-c2cccc4nsnc24)CCC3)nc1 | 140 to 142
37 | Clc1cc(Cl)c2nc3c4ccccc4c4ccccc4c3nc2c1 | 221 to 222
38 | COc1cccc(Cl)c1CC(=O)O | 164 to 165
39 | CC(=O)OCc1csc(=S)n1CCC(=O)O | 144
40 | C=CCO/N=C(/C(=O)O)c1ccc(OCCOc2ccc3ccccc3c2)s1 | 106 to 108
41 | CCC(=O)C1(Nc2ccccc2)CCN(CCc2ccccc2)CC1 | 106
42 | CCC(=O)OC1(C(=O)C(O)OC(=O)C(NC(=O)OC(C)(C)C)C(C)C)CCC2C3CC(C)C4=CC(=O)C=CC4(C)C3C(O)CC21C (stereo not drawn) | 110 to 130
43 | CC(=O)N1CCC(C)(C)c2cc(F)cc(CCN3CCN(c4noc5ccccc45)CC3)c21 | 112
44 | FC(F)(F)Oc1ccc(-c2ccc3[nH]c4c(ccc5cc[nH]c54)c3c2)cc1 | > 250
45 | Cc1ccccc1NC(=O)NCC1(c2ccccc2)CCCCC1 | 171 to 174
46 | CC(=C1SCCCS1)c1ccc(Oc2ccc(S(C)=O)cc2)cc1 (stereo not drawn) | 132
47 | CCOC(=O)c1cc2c(Cl)c(F)ccc2[nH]1 | 180 to 182
48 | COc1ccc(C2Cc3ccccc3N=C(C)N2C)cc1 (stereo not drawn) | 130 to 132
49 | CN(C)C(=O)ON=C1n2ccnc2SC1(C)C | 99 to 102
50 | COc1ccc(C2(C)CCc3cc(OC)ccc3C2(O)C#CCCCCOC2CCCCO2)cc1 (stereo not drawn) | 80 to 82

Row | Structure (SMILES) | melting point [°C]
51 | CC1(C)CCC(C)(C)c2cc(C#CCc3ccc(C(=O)O)cc3)ccc21 | 159 to 160
52 | NC(=O)Nc1cccc(CS(=O)(=O)O)c1 | 180 to 187
53 | CN(C)c1ccc(-c2cc(C(F)(F)F)c3c(-c4ccccc4)nn(COCC[Si](C)(C)C)c3n2)cc1 | 98
54 | c1cn(-c2ccc(N3CCNCC3)cc2)cn1 | 177 to 180
55 | CN(Cc1cc(-c2ccc(CC3SC(=O)NC3=O)cc2)cs1)C(=O)c1ccccc1 (stereo not drawn) | 134
56 | c1ccc2c(c1)N=C(N1CCNCC1)c1sccc1N2 | 203 to 206
57 | CS(=O)(=O)c1ccc(-c2cnn(Cc3ccc4ccccc4n3)c(=O)c2-c2ccc(F)cc2)cc1 | 97 to 100
58 | O=C(NN=Cc1ccc2ccccc2n1)c1cccc([N+](=O)[O-])c1 | 217 to 218
59 | COC(=O)[C@@](N)(CCSC)C(=O)c1ccc(NC[C@@H]2C[C@@H](O)CN2C(=O)OC(C)(C)C)cc1-c1ccccc1 | 81
60 | O=C(c1ccccc1)C1CCN(CC2CN(c3ccccc3)C(=O)O2)CC1 (stereo not drawn) | 104 to 105
61 | CC(C)(CC(=O)Oc1ccccc1C(C)(C)C)NS(=O)(=O)C(F)(F)F | 69 to 71
62 | COc1nc(NC(=O)Nc2ccccc2OC)nc(N(CCC(=O)O)Cc2cccc(C)c2)n1 | 160 to 162
63 | CCCCN(Cc1ccc(-c2ccccc2C#N)cc1)C(=O)Cc1ccccc1C(=O)O | 137 to 139
64 | COC(=O)NNC(=S)Cc1cc(OC)c(OC)c(OC)c1 | 134
65 | COCCOc1ccc2ccc(NC(=O)c3ccc(OC)cc3)nc2n1 | 114
66 | O=C1C=C2CN(C(C(=O)C3CC3)c3ccccc3Cl)CCC2S1 (stereo not drawn) | 119 to 123
67 | Cn1cncc1C(O)(c1ccc(Cl)cc1)c1ccc2nc(C=CC(N)=O)cc(-c3cccc(Cl)c3)c2c1 (stereo not drawn) | 80
68 | Nc1ncc(-c2cccc(Nc3ccc(-c4ccoc4)cc3[N+](=O)[O-])c2)cn1 | 185 to 186
69 | C[C@@H](CO)[C@](O)(Cn1cncn1)c1ccc(F)cc1F | 93 to 95
70 | Cc1ccc(-c2nc(N)n3nc(-c4ccco4)nc3n2)cc1 | > 275
71 | COc1cn2nc(OCCCN3CCN(C(c4ccccc4)c4ccccc4)CC3)ccc2n1 | 144 to 146
72 | O=S(CCCn1cnc(-c2ccc(F)cc2)c1-c1ccncc1)c1ccccc1 (stereo not drawn) | 146 to 148
73 | Brc1ccc2ccsc2c1 | 53 to 55
